What was measured:
Assay in all cases: kinase panel
Assay type in all cases: biochemical
FGFR1(h) = FGFR1(h) (Homo sapiens, UniProt P11362)
In short: (§1)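 Three compounds in the series were profiled against a panel of 231 kinases, and activity is reported as % inhibition. For one compound, a subset of 98 kinases was selected on the basis of its structural similarity to another series member.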

GSK3β(h) = GSK3β(h) (Homo sapiens, UniProt P49841)
In short: as §1

ARK5(h) = molecular target: T1, ARK5(h) (Homo sapiens, UniProt O60285)
T1 sequence (O60285 1-661): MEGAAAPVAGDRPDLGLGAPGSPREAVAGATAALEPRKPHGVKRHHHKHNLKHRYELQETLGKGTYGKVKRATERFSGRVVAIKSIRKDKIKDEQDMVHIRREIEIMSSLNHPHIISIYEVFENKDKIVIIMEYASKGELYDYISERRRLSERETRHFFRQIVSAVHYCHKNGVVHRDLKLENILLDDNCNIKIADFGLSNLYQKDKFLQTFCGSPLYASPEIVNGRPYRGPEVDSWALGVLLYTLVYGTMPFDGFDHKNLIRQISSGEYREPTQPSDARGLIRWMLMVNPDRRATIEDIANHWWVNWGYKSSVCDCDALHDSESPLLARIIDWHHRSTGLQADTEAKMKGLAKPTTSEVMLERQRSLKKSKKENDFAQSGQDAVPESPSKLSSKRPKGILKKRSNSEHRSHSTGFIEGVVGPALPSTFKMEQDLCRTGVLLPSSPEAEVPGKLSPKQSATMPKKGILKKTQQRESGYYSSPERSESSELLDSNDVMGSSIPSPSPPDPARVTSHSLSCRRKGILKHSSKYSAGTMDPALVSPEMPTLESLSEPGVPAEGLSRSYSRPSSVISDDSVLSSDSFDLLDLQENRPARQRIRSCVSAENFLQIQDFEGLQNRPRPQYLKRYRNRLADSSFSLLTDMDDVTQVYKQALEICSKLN
In short: as §1

PKCμ(h) = molecular target: T2, PKCμ(h) (Homo sapiens, UniProt Q15139)
T2 sequence (Q15139 1-912): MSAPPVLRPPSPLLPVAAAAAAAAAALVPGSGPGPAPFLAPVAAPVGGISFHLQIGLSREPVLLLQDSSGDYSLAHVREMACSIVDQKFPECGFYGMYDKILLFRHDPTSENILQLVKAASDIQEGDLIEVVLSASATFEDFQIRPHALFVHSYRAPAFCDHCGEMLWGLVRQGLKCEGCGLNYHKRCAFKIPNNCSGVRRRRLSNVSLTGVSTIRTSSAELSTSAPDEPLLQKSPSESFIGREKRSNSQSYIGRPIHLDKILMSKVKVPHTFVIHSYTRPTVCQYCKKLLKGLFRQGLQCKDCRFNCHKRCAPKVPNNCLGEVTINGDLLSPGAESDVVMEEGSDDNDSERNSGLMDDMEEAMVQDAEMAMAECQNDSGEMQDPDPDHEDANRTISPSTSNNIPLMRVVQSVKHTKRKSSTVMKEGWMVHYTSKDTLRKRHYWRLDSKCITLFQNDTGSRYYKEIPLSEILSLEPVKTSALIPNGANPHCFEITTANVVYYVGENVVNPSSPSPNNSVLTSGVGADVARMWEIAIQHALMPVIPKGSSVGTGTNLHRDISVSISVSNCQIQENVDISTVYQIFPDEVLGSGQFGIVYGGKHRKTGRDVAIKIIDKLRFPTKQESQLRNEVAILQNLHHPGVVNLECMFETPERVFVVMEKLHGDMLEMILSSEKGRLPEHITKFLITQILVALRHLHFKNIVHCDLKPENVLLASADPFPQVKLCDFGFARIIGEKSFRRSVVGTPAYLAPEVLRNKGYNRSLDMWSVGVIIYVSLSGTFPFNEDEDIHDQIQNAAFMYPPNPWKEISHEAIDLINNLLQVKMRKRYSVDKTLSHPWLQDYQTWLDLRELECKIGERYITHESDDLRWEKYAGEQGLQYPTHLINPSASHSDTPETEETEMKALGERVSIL
In short: as §1

Flt4(h) = Flt4(h) (Homo sapiens, UniProt P35916)
In short: as §1

EphA1(h) = molecular target: T3, EphA1(h) (Homo sapiens, UniProt P21709)
T3 sequence (P21709 26-976): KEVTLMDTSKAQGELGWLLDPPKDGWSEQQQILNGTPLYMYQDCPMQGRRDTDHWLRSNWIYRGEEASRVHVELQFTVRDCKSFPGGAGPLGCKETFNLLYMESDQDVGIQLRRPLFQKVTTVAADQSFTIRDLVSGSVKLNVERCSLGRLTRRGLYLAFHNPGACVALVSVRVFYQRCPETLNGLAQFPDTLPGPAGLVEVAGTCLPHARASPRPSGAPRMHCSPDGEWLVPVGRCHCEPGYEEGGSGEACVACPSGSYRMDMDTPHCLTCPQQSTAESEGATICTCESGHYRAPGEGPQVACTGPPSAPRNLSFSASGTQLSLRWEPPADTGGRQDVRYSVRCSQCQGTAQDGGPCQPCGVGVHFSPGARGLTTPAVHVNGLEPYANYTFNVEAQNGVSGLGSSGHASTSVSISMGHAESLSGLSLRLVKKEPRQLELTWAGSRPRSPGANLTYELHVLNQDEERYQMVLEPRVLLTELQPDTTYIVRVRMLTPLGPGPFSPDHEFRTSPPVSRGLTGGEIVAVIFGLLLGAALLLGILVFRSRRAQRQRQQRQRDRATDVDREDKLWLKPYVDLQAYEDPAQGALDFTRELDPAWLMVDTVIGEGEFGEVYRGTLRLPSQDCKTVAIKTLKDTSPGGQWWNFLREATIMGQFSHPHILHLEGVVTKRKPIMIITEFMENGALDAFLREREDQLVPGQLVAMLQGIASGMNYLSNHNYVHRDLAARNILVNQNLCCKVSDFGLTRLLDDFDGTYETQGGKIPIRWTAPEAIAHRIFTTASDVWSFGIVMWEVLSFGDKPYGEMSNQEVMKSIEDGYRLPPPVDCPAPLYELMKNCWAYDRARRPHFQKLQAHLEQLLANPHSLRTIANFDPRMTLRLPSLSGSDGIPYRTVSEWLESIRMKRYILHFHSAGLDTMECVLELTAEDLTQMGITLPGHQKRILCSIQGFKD
In short: as §1

KDR(h) = KDR(h) (Homo sapiens, UniProt P35968)
In short: as §1

PKBα(h) = PKBα(h) (Homo sapiens, UniProt P31749)
In short: as §1

Ret(h) = Ret(h) (Homo sapiens, UniProt P07949)
In short: as §1

Chain of FGFR1(h) (P11362 22-822): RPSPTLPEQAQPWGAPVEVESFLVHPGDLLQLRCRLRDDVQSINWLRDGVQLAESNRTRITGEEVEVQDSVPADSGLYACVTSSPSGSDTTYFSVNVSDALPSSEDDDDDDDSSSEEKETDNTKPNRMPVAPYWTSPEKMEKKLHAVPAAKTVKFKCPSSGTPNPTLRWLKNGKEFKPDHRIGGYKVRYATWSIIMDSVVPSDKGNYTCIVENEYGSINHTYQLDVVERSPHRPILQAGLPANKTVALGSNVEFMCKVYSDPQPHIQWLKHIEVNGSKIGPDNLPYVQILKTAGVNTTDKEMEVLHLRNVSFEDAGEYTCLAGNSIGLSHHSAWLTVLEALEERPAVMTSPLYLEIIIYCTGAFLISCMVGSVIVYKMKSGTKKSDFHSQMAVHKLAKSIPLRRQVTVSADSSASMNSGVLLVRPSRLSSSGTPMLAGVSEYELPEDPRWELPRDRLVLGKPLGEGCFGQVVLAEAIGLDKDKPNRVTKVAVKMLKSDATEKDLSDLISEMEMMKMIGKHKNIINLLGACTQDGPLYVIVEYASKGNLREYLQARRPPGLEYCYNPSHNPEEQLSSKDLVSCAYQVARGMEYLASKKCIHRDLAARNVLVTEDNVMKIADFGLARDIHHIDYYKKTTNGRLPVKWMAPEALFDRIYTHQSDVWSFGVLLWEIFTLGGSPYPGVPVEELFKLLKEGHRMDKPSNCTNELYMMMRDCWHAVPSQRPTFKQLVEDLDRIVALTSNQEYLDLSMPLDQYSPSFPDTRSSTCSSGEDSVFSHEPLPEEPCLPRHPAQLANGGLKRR
Chain of Ret(h) (P07949 29-1114): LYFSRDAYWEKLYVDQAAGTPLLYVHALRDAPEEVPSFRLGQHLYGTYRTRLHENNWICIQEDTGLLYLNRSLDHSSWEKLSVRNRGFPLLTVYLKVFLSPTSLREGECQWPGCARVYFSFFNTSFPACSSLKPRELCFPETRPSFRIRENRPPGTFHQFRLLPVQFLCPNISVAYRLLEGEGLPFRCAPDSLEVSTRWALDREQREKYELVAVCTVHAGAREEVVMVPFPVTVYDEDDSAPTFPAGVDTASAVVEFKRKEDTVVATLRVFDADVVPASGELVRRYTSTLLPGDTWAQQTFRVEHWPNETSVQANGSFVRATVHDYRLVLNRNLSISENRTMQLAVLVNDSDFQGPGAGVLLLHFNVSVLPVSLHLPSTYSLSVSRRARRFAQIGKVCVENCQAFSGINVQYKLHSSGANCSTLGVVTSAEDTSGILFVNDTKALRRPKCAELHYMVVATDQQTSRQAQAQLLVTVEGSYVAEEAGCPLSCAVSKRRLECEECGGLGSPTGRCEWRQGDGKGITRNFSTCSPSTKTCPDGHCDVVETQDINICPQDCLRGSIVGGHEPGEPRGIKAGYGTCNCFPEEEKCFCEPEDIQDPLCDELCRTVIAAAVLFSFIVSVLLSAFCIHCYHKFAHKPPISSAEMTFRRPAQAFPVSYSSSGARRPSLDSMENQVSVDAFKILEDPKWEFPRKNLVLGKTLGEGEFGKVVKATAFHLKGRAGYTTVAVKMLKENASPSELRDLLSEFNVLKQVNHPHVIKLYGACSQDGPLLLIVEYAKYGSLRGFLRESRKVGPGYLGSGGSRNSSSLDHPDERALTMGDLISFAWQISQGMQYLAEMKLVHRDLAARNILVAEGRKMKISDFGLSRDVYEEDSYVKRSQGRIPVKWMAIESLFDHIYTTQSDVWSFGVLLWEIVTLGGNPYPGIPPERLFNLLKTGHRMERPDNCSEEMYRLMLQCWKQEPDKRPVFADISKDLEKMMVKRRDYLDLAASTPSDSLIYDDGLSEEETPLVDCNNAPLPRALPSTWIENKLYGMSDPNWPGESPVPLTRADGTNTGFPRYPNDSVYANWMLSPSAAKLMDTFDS
Chain of PKBα(h) (P31749 whole entry): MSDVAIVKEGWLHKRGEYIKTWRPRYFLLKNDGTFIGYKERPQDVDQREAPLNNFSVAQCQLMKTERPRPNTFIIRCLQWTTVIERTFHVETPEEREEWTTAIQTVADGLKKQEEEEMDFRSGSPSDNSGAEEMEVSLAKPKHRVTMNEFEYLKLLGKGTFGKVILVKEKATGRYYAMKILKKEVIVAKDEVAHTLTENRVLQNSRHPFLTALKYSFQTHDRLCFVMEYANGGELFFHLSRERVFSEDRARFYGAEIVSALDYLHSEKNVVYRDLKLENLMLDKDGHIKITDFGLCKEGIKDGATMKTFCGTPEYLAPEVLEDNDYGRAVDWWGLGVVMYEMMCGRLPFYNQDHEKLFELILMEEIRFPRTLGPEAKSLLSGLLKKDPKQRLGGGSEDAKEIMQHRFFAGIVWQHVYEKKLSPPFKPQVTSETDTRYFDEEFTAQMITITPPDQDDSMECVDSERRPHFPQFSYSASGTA
Chain of Flt4(h) (P35916 25-1363): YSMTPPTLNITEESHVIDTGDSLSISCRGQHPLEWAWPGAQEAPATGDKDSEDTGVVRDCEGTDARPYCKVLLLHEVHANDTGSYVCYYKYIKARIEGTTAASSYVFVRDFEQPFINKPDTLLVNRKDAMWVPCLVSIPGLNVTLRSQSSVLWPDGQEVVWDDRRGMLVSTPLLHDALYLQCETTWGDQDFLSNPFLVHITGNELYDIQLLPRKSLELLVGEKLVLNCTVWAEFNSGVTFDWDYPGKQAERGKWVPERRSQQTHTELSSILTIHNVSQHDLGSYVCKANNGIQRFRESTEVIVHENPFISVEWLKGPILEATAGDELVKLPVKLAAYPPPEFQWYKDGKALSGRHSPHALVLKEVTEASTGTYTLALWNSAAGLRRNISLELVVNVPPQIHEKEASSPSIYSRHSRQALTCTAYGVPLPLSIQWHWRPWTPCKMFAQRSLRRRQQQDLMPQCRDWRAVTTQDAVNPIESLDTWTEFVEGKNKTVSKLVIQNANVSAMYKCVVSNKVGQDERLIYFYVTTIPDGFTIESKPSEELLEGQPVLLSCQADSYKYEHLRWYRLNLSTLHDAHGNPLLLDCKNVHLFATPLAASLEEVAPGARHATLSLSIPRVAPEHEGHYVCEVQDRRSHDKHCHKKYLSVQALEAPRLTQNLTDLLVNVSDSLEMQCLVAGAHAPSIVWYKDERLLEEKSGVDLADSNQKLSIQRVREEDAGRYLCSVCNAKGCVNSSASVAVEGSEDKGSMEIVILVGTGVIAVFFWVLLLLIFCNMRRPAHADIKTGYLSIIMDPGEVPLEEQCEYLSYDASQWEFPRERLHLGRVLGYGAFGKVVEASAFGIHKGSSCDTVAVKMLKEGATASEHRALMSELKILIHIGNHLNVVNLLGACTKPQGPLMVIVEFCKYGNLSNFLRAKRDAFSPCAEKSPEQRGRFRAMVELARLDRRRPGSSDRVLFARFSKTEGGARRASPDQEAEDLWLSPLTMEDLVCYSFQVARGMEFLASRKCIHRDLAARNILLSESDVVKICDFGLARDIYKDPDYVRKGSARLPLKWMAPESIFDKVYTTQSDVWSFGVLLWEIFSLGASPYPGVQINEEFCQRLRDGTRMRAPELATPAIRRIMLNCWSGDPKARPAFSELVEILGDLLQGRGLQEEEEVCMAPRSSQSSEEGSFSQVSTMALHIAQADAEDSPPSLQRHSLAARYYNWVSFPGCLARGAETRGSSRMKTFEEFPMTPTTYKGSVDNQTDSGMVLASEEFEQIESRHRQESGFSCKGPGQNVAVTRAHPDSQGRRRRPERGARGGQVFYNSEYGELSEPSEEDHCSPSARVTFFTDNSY
Chain of GSK3β(h) (P49841 whole entry): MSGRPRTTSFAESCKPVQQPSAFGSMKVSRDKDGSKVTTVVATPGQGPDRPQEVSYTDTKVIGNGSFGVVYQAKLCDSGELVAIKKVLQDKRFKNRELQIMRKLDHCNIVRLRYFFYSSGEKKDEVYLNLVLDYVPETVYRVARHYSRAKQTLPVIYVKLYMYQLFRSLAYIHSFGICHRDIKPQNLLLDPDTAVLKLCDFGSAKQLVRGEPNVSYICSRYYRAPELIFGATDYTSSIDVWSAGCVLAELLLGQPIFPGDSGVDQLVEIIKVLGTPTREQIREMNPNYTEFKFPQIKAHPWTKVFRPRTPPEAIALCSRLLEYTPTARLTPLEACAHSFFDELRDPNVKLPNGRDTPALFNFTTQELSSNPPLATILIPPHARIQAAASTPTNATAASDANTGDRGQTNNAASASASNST

inhibition at 1 µM (FGFR1(h)) [%] | inhibition at 1 µM (GSK3β(h)) [%] | inhibition at 1 µM (ARK5(h)) [%] | inhibition at 1 µM (PKCμ(h)) [%] | inhibition at 1 µM (Flt4(h)) [%] | inhibition at 1 µM (EphA1(h)) [%] | inhibition at 1 µM (KDR(h)) [%] | inhibition at 1 µM (PKBα(h)) [%] | inhibition at 1 µM (Ret(h)) [%] | Compound
-4 | 5 | 3 | -9 | 43 | -7 | 26 | 4 | -3 | Nc1n[nH]c2ccc(-c3ccnc4[nH]c(-c5ccnc(OCc6ccccc6)c5)cc34)cc12 [Compound 6g [SU1349]]
84 | 92 | 87 | 21 | 97 | 87 | 93 | 8 | 52 | Nc1n[nH]c2ccc(-c3ccnc4[nH]c(-c5ccccc5)cc34)cc12 [Compound 4]
64 | 57 | 33 | 18 | 63 | 24 | 42 | 10 | 41 | Nc1n[nH]c2ccc(-c3ccnc4[nH]c(-c5cccc(OCc6ccccc6)c5)cc34)cc12 [Compound 5r [SU1261]]
